Experiments:
[1] = tested on: HL-60 (ATCC CCL-240) cells; experiment: Apoptosis morphology in HL-60 cells under optical microscope; assay type: cell-based, Human; settings: 24 hours
Description: (§1) HL-60 (ATCC CCL-240) cells were cultured at 37° C. in RPMI 1640 medium (Bio Whittaker) containing 10% fetal calf serum (JRH) which had been treated at 56° C. for 30 minutes and suspended in RPMI 1640 medium at a concentration of 2.5×10^5 cells/4.5 ml. […] each of aqueous solutions of the compound (2) at a concentration of 10, 50 or 100 mM, the compound (7) at a concentration of 500, 1000 or 1500 μM, the compound (9) at a concentration of 750, 1500 or 3000 μM, the compound (11) at a concentration of 750, 1500 or 3000 μM, or the compound (14) at a concentration of 750, 1500 or 3000 μM was added to 4.5 ml of the suspension. The mixtures were incubated at 37° C. for 24 hours in the presence of 5% CO2. The cultured cells were examined under an optical microscope.

[2] = tested on: HL-60 (ATCC CCL-240) cells; experiment: Measurement of apoptotic cells using FACScan; assay type: cell-based, Human; settings: HL-60 cells, cultured for 24 or 48 hours
Description: as §1, with “CO2. Measurement of apoptotic cells using FACScan as described in Saibo Kogaku, Bessatsu (Cell Technology, Suppl.) Jikken Protocol Series: Apoptosis Jikken Protocol (Experimental Protocol Series: Experimental Protocols for Apoptosis) (Shujun-sha) pp. 129-130 and analysis of DNA fragmentation as described in Bio Manual UP Series: […] Apoptosis Jikken-ho (Bio Manual UP Series: Current Experimental Methods for Apoptosis) (Yodo-sha) pp. 61-63 were carried out using cells” for “CO2. The”, “cultured for 24 or 48 hours in the same manner as that described above.” for “cultured cells were examined under an optical microscope.”

[3] = tested on: NO production in celiac macrophages; experiment: NO production of celiac macrophages from orally dosed mice; assay type: in vivo; settings: 1% suspension in olive oil, forced oral administration once a day, 12 times in 15 days, 10 or 30 ml/kg, ddY mice
Description: The compound (7) in Example 1 was suspended in olive oil (Nacalai Tesque) at a concentration of 1% to prepare a 1% suspension of the compound (7). The 1% suspension of the compound (7) prepared as described above was administered to ddY mice (Japan SLC, female, 7 weeks old) by forced oral administration once a day, 12 times in 15 days, at a dosage of 10 or 30 ml/kg. Tap water was similarly administered by forced oral administration as a control. Each group consisted of 3 mice. Thereafter, 4 ml of RPMI 1640 medium (Bio Whittaker, Code. 12-702F) containing 10% fetal calf serum was intraperitoneally injected. Media removed from 3 mice after extensive massage were combined to obtain celiac cells. The celiac cells were suspended in RPMI 1640 medium containing 10% fetal calf serum at a concentration of 10^6 cells/ml. 500 μl of the suspension was added to each well of a 48-well microtiter plate and the plate was incubated at 37° C. for 2 hours in the presence of 5% CO2. Adhesive cells obtained by removing the culture supernatant were used as celiac macrophages. 500 μl of fresh Dulbecco's modified Eagle's medium (Bio Whittaker, Code. 12-917F) without Phenol Red containing 10% fetal calf serum and 2 mM L-glutamine was added to each well. […] The concentration of NO2^− resulting from oxidation of NO in the medium was then measured as described in Example 6. […]

[4] = tested on: PGE2 production in celiac macrophages; experiment: PGE2 production of celiac macrophages from orally dosed mice; assay type: in vivo; settings: 1% suspension in olive oil, forced oral administration once a day, 12 times in 15 days, 10 or 30 ml/kg, ddY mice
Description: The compound (7) in Example 1 was suspended in olive oil (Nacalai Tesque) at a concentration of 1% to prepare a 1% suspension of the compound (7). The 1% suspension of the compound (7) prepared as described above was administered to ddY mice (Japan SLC, female, 7 weeks old) by forced oral administration once a day, 12 times in 15 days, at a dosage of 10 or 30 ml/kg. Tap water was similarly administered by forced oral administration as a control. Each group consisted of 3 mice. Thereafter, 4 ml of RPMI 1640 medium (Bio Whittaker, Code. 12-702F) containing 10% fetal calf serum was intraperitoneally injected. Media removed from 3 mice after extensive massage were combined to obtain celiac cells. The celiac cells were suspended in RPMI 1640 medium containing 10% fetal calf serum at a concentration of 10^6 cells/ml. 500 μl of the suspension was added to each well of a 48-well microtiter plate and the plate was incubated at 37° C. for 2 hours in the presence of 5% CO2. Adhesive cells obtained by removing the culture supernatant were used as celiac macrophages. […] After the plate was incubated for additional 12 hours, the amount of prostaglandin E2 (PGE2) was measured. […] After cultivation, the amount of prostaglandin E2 in the culture supernatant was measured using Prostaglandin E2 ELISA Kit (Neogen, Code. 404110). […]

O=C[C@H](O)[C@H]1OC[C@@H](O)[C@@H]1OC(=O)c1ccccc1 [Compound (7), 4-O-benzoyl-3,6-anhydro-D-galactose]
final concentration at which condensation of nuclei, shrinking of cells and formation of apoptotic bodies were observed [1]: ≥ 100 µM | final concentration at which apoptotic cells were observed [2]: ≥ 100 µM | activity of inhibiting NO production in celiac macrophages (LPS and IFN-γ) [3]: remarkable activity of inhibiting NO production | activity of inhibiting PGE2 production in celiac macrophages (LPS) [4]: remarkable activity of inhibiting PGE2 production

— patent US6518302B1, “Remedies” (Takara Shuzo Co., Ltd., priority 1999, dated 2003)
